Measured values taken from PubChem BioAssay AID328 (DTP/NCI, 2004).
Values joined by “and” are separate entries in the source; they are usually repeats but may differ in a detail not shown here. Equal entries are not always repeated. Toxic doses and inconclusive results are not listed.

Test system: BDF1 mice, P388 leukemia ip, median survival T/C
Assay: NCI In Vivo Anticancer Drug Screen. Data for tumor model P388 Leukemia (intraperitoneal) in B6D2F1 (BDF1) mice
Settings: endpoint: median survival time, higher = longer survival
Outline: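 Survival ratio, drug arm over vehicle arm, in mice with a transplanted tumour.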

## COc1cccc2c1C(=O)c1c(O)c3c(c(O)c1C2=O)C[C@@](O)(C(C)=O)C[C@@H]3OC1CC(N)C(O)C(C)O1 (stereo partly specified)
dose: 0.03 mg/kg/injection, schedule: Q01DX010 (ip), vehicle: saline
  T/C: 108 % of control
dose: 0.06 mg/kg/injection, schedule: Q## X020 (ip), vehicle: saline
  T/C: 108 % of control
dose: 0.13 mg/kg/injection, schedule: Q01DX010 (ip), vehicle: saline
  T/C: 150 % of control
dose: 0.13 mg/kg/injection, schedule: Q03HX024 (ip), vehicle: saline
  T/C: 200 % of control
dose: 0.13 mg/kg/injection, schedule: Q## X020 (ip), vehicle: saline
  T/C: 100 % of control
dose: 0.21 mg/kg/injection, schedule: Q03HX024 (ip), vehicle: saline
  T/C: 210 % of control
dose: 0.21 mg/kg/injection, schedule: Q## X010 (ip), vehicle: saline
  T/C: 190 % of control
dose: 0.21 mg/kg/injection, schedule: Q## X020 (ip), vehicle: saline
  T/C: 195 % of control
dose: 0.25 mg/kg/injection, schedule: Q01DX009 (ip), vehicle: saline
  T/C: 208 % of control
dose: 0.25 mg/kg/injection, schedule: Q01DX010 (ip), vehicle: clinical formulation
  T/C: 159 % of control
dose: 0.36 mg/kg/injection, schedule: Q03HX024 (ip), vehicle: saline
  T/C: 205 % of control
dose: 0.36 mg/kg/injection, schedule: Q04DX003 (ip), vehicle: saline
  T/C: 180 % of control
dose: 0.36 mg/kg/injection, schedule: Q## X020 (ip), vehicle: saline
  T/C: 200 % of control
dose: 0.38 mg/kg/injection, schedule: Q01DX010 (ip), vehicle: saline
  T/C: 189 % of control
dose: 0.5 mg/kg/injection, schedule: Q01DX009 (ip), vehicle: saline
  T/C: 170 % of control
dose: 0.5 mg/kg/injection, schedule: Q01DX010 (ip), vehicle: clinical formulation
  T/C: 168 % of control
dose: 0.5 mg/kg/injection, schedule: Q01DX010 (ip), vehicle: water
  T/C: 175 % of control
dose: 0.5 mg/kg/injection, schedule: Q03HX008 (ip), vehicle: water
  T/C: 181 % of control
dose: 0.5 mg/kg/injection, schedule: Q06HX004 (ip), vehicle: water
  T/C: 190 % of control
dose: 0.5 mg/kg/injection, schedule: Q## X020 (ip), vehicle: saline
  T/C: 100 % of control and 207 % of control
dose: 0.6 mg/kg/injection, schedule: Q03HX024 (ip), vehicle: saline
  T/C: 235 % of control
dose: 0.6 mg/kg/injection, schedule: Q04DX003 (ip), vehicle: saline
  T/C: 215 % of control
dose: 0.6 mg/kg/injection, schedule: Q## X010 (ip), vehicle: saline
  T/C: 210 % of control
dose: 0.6 mg/kg/injection, schedule: Q## X020 (ip), vehicle: saline
  T/C: 190 % of control
dose: 0.63 mg/kg/injection, schedule: Q01DX010 (ip), vehicle: saline
  T/C: 195 % of control and 200 % of control
dose: 0.75 mg/kg/injection, schedule: Q01DX010 (ip), vehicle: saline
  T/C: 205 % of control
dose: 0.78 mg/kg/injection, schedule: Q04DX002 (ip), vehicle: saline
  T/C: 172 % of control
dose: 1.0 mg/kg/injection, schedule: Q01DX009 (ip), vehicle: saline
  T/C: 108 % of control
dose: 1.0 mg/kg/injection, schedule: Q01DX010 (ip), vehicle: clinical formulation
  T/C: 163 % of control
dose: 1.0 mg/kg/injection, schedule: Q01DX010 (ip), vehicle: water
  T/C: 195 % of control
dose: 1.0 mg/kg/injection, schedule: Q03HX008 (ip), vehicle: water
  T/C: 204 % of control
dose: 1.0 mg/kg/injection, schedule: Q03HX024 (ip), vehicle: saline
  T/C: 115 % of control
dose: 1.0 mg/kg/injection, schedule: Q04DX003 (ip), vehicle: water
  T/C: 115 % of control
dose: 1.0 mg/kg/injection, schedule: Q06HX004 (ip), vehicle: water
  T/C: 190 % of control
dose: 1.0 mg/kg/injection, schedule: Q## X010 (ip), vehicle: saline
  T/C: 200 % of control
dose: 1.0 mg/kg/injection, schedule: Q## X020 (ip), vehicle: saline
  T/C: 287 % of control and 108 % of control and 209 % of control
dose: 1.25 mg/kg/injection, schedule: Q01DX009 (ip), vehicle: water
  T/C: 176 % of control
dose: 1.25 mg/kg/injection, schedule: Q01DX010 (ip), vehicle: saline
  T/C: 227 % of control and 215 % of control
dose: 1.3 mg/kg/injection, schedule: Q01DX009 (ip), vehicle: clinical formulation
  T/C: 231 % of control
dose: 1.5 mg/kg/injection, schedule: Q01DX010 (ip), vehicle: saline
  T/C: 210 % of control
dose: 1.56 mg/kg/injection, schedule: Q01DX009 (ip), vehicle: water
  T/C: 157 % of control and 196 % of control
dose: 1.56 mg/kg/injection, schedule: Q04DX002 (ip), vehicle: saline
  T/C: 209 % of control
dose: 1.7 mg/kg/injection, schedule: Q04DX003 (ip), vehicle: saline
  T/C: 225 % of control
dose: 1.7 mg/kg/injection, schedule: Q## X010 (ip), vehicle: saline
  T/C: 165 % of control
dose: 1.7 mg/kg/injection, schedule: Q## X020 (ip), vehicle: saline
  T/C: 180 % of control
dose: 1.8 mg/kg/injection, schedule: Q01DX009 (ip), vehicle: water
  T/C: 161 % of control
dose: 2.0 mg/kg/injection, schedule: Q01DX009 (ip), vehicle: clinical formulation
  T/C: 257 % of control
dose: 2.0 mg/kg/injection, schedule: Q01DX010 (ip), vehicle: clinical formulation
  T/C: 172 % of control
dose: 2.0 mg/kg/injection, schedule: Q01DX010 (ip), vehicle: water
  T/C: 95 % of control
dose: 2.0 mg/kg/injection, schedule: Q03HX008 (ip), vehicle: water
  T/C: 95 % of control
dose: 2.0 mg/kg/injection, schedule: Q06HX004 (ip), vehicle: water
  T/C: 195 % of control
dose: 2.5 mg/kg/injection, schedule: Q01DX001 (ip), vehicle: saline
  T/C: 109 % of control and 215 % of control
dose: 2.5 mg/kg/injection, schedule: Q01DX009 (ip), vehicle: water
  T/C: 97 % of control
dose: 2.9 mg/kg/injection, schedule: Q04DX003 (ip), vehicle: saline
  T/C: 200 % of control
dose: 3.0 mg/kg/injection, schedule: Q01DX009 (ip), vehicle: clinical formulation
  T/C: 157 % of control
dose: 3.0 mg/kg/injection, schedule: Q01DX009 (ip), vehicle: water
  T/C: 173 % of control
dose: 3.0 mg/kg/injection, schedule: Q01DX010 (ip), vehicle: saline
  T/C: 189 % of control
dose: 3.13 mg/kg/injection, schedule: Q01DX009 (ip), vehicle: water
  T/C: 90 % of control
dose: 3.13 mg/kg/injection, schedule: Q04DX002 (ip), vehicle: saline
  T/C: 169 % of control and 181 % of control
dose: 4.0 mg/kg/injection, schedule: Q01DX010 (ip), vehicle: clinical formulation
  T/C: 104 % of control
dose: 4.0 mg/kg/injection, schedule: Q01DX010 (ip), vehicle: water
  T/C: 90 % of control
dose: 4.5 mg/kg/injection, schedule: Q01DX009 (ip), vehicle: clinical formulation
  T/C: 100 % of control
dose: 5.0 mg/kg/injection, schedule: Q01DX010 (ip), vehicle: saline
  T/C: 120 % of control
dose: 6.25 mg/kg/injection, schedule: Q04DX002 (ip), vehicle: saline
  T/C: 100 % of control
dose: 13.33 mg/kg/injection, schedule: Q04DX003 (ip), vehicle: water
  T/C: 100 % of control and 207 % of control
dose: 16.0 mg/kg/injection, schedule: Q04DX009 (ip), vehicle: water
  T/C: 96 % of control
dose: 78.0 micrograms/kg/injection, schedule: Q01DX010 (ip), vehicle: saline
  T/C: 165 % of control
dose: 125.0 micrograms/kg/injection, schedule: Q01DX010 (ip), vehicle: clinical formulation
  T/C: 150 % of control
dose: 156.0 micrograms/kg/injection, schedule: Q01DX010 (ip), vehicle: saline
  T/C: 185 % of control
dose: 250.0 micrograms/kg/injection, schedule: Q01DX010 (ip), vehicle: clinical formulation
  T/C: 183 % of control
dose: 313.0 micrograms/kg/injection, schedule: Q01DX010 (ip), vehicle: saline
  T/C: 185 % of control
dose: 500.0 micrograms/kg/injection, schedule: Q01DX010 (ip), vehicle: clinical formulation
  T/C: 195 % of control
dose: 625.0 micrograms/kg/injection, schedule: Q01DX010 (ip), vehicle: saline
  T/C: 200 % of control
dose: 1300.0 micrograms/kg/injection, schedule: Q04DX003 (ip), vehicle: water
  T/C: 174 % of control
dose: 2160.0 micrograms/kg/injection, schedule: Q04DX003 (ip), vehicle: water
  T/C: 162 % of control
dose: 3600.0 micrograms/kg/injection, schedule: Q04DX003 (ip), vehicle: water
  T/C: 117 % of control
